Series [1] has as its system barnyardgrass (Echinochloa crus-galli). Nature of the series: Test A preemergence. The class given is in vivo. The note with it: Echinochloa crus-galli, pre-emergence, 240 h; for pest or weed control at 125 g/ha: 125 g ai/ha; for pest or weed control at 500 g/ha: 500 g ai/ha. In a few lines:
(§1)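 Preemergence directed soil spray on seeded pots, or postemergence application to plants 2–10 cm, one- to two-leaf. Solvent mixture non-phytotoxic, with surfactant. Scored ~10 d later, visually, 0–100 vs untreated.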

The test system of another series is Kochia (Kochia scoparia). Nature of the series: Test A preemergence. The format is in vivo. The note with it: Bassia scoparia, pre-emergence, 240 h; for pest or weed control at 125 g/ha: 125 g ai/ha; for pest or weed control at 500 g/ha: 500 g ai/ha. The method in brief:
as §1

For series [2], the system named is giant foxtail (Setaria faberii). Nature of the series: Test A preemergence. The class given is in vivo. The note with it: Setaria faberi, pre-emergence, 240 h; for pest or weed control at 125 g/ha: 125 g ai/ha; for pest or weed control at 500 g/ha: 500 g ai/ha. The method in brief: as §1
Series [3] relates to ryegrass, Italian (Italian ryegrass, Lolium multiflorum). Nature of the series: Test A preemergence. The format is in vivo. Particulars: Lolium multiflorum, pre-emergence, 240 h; for pest or weed control at 125 g/ha: 125 g ai/ha; for pest or weed control at 500 g/ha: 500 g ai/ha. In a few lines:
as §1

Series [4] relates to ragweed (common ragweed, Ambrosia elatior). Nature of the series: Test A preemergence. The class given is in vivo. Particulars: Ambrosia artemisiifolia, pre-emergence, 240 h; for pest or weed control at 125 g/ha: 125 g ai/ha; for pest or weed control at 500 g/ha: 500 g ai/ha. In a few lines:
as §1

The mark [5] stands for this setting: preemergence, 0 to 100 scale where 0 is no effect and 100 is complete control, read-out: Barnyardgrass plant response rating.
[6] abbreviates: preemergence, 0 to 100 scale where 0 is no effect and 100 is complete control, approx. 10 d, read-out: Kochia plant response rating.
[7] abbreviates: preemergence, 0 to 100 scale where 0 is no effect and 100 is complete control, read-out: Kochia plant response rating.
Where [8] appears, read: preemergence, 0 to 100 scale where 0 is no effect and 100 is complete control, read-out: Foxtail, Giant plant response rating.
Setting [9] is: preemergence, 0 to 100 scale where 0 is no effect and 100 is complete control, approx. 10 d, read-out: Ryegrass, Italian plant response rating.
Where [10] appears, read: preemergence, 0 to 100 scale where 0 is no effect and 100 is complete control, read-out: Ryegrass, Italian plant response rating.
Where [11] appears, read: preemergence, 0 to 100 scale where 0 is no effect and 100 is complete control, approx. 10 d, read-out: Ragweed plant response rating.
Where [12] appears, read: preemergence, 0 to 100 scale where 0 is no effect and 100 is complete control, read-out: Ragweed plant response rating.
Where [13] appears, read: Preemergence, visual injury rating after approximately 10 d, read-out: Barnyardgrass plant response rating (0 to 100 scale, 0 is no effect, 100 is complete control).
Where [14] appears, read: preemergence, visual injury rating about 10 d after treatment, 0 to 100 scale (0 no effect, 100 complete control), read-out: Barnyardgrass plant response rating.
Where [15] appears, read: preemergence, visual injury rating about 10 d after treatment, 0 to 100 scale (0 no effect, 100 complete control), read-out: Kochia plant response rating.
[16] abbreviates: Preemergence, visual injury rating after approximately 10 d, read-out: Foxtail, Giant plant response rating (0 to 100 scale, 0 is no effect, 100 is complete control).
[17] abbreviates: preemergence, visual injury rating about 10 d after treatment, 0 to 100 scale (0 no effect, 100 complete control), read-out: Foxtail, Giant plant response rating.
[18] abbreviates: preemergence, visual injury rating about 10 d after treatment, 0 to 100 scale (0 no effect, 100 complete control), read-out: Ryegrass, Italian plant response rating.
Setting [19] is: preemergence, visual injury rating about 10 d after treatment, 0 to 100 scale (0 no effect, 100 complete control), read-out: Ragweed plant response rating.
The mark [20] stands for this setting: Preemergence, visual injury vs untreated controls after approximately 10 d, read-out: Barnyardgrass plant response rating (0 to 100 scale where 0 is no effect and 100 is complete control).
The mark [21] stands for this setting: Preemergence, visual injury vs untreated controls after approximately 10 d, read-out: Kochia plant response rating (0 to 100 scale where 0 is no effect and 100 is complete control).
[22] abbreviates: Preemergence, visual injury vs untreated controls after approximately 10 d, read-out: Foxtail, Giant plant response rating (0 to 100 scale where 0 is no effect and 100 is complete control).
Setting [23] is: Preemergence, visual injury vs untreated controls after approximately 10 d, read-out: Ryegrass, Italian plant response rating (0 to 100 scale where 0 is no effect and 100 is complete control).
The mark [24] stands for this setting: Preemergence, visual injury vs untreated controls after approximately 10 d, read-out: Ragweed plant response rating (0 to 100 scale where 0 is no effect and 100 is complete control).

The melting point is the temperature of the solid-liquid transition.

Molecules are shown by their SMILES. Where two headings read alike, the source gives them in different places.

`O=C1NC[C@H](c2nccs2)[C@H]1C(=O)Nc1ccccc1F` [Compound 1181] returned a melting point of 123 to 127.7 °C. Further, the pest or weed control at 125 g/ha in series [1] (preemergence, 0 to 100 scale where 0 is no effect and 100 is complete control, approx. 10 d, read-out: Barnyardgrass plant response rating) came out at 0%. In series [1] (setting [5]), the pest or weed control at 500 g/ha came to 0%. The pest or weed control at 125 g/ha with Kochia (Kochia scoparia) (setting [6]) was 0%. Further, the pest or weed control at 500 g/ha with Kochia (Kochia scoparia) (setting [7]) was 0%. In addition, the pest or weed control at 125 g/ha in series [2] (preemergence, 0 to 100 scale where 0 is no effect and 100 is complete control, approx. 10 d, read-out: Foxtail, Giant plant response rating) was 0%. Besides, the pest or weed control at 500 g/ha in series [2] (setting [8]) was determined as 0%. For the same compound, in series [3] (setting [9]), the pest or weed control at 125 g/ha was 0%. Moreover, in series [3] (setting [10]), the pest or weed control at 500 g/ha came to 0%. Besides, in series [4] (setting [11]), the pest or weed control at 125 g/ha is 0%. Besides, the pest or weed control at 500 g/ha in series [4] (setting [12]) was found to be 0%.
The compound `CN1CC(c2ccccc2OC(F)(F)C(F)F)C(C(=O)Nc2ccccc2F)C1=O` (centres unmarked) [Compound 1053] gave a melting point of 118 to 121 °C. Moreover, the pest or weed control at 125 g/ha in series [1] (setting [13]) was found to be 0%. Further, the pest or weed control at 500 g/ha in series [1] (setting [14]) turned out to be 60%. Further, the pest or weed control at 125 g/ha with Kochia (Kochia scoparia) (Preemergence, visual injury rating after approximately 10 d, read-out: Kochia plant response rating (0 to 100 scale, 0 is no effect, 100 is complete control)) is 0%. Also, the pest or weed control at 500 g/ha in the series with Kochia (Kochia scoparia) (setting [15]) came to 0%. The pest or weed control at 125 g/ha in series [2] (setting [16]) came out at 0%. The pest or weed control at 500 g/ha in series [2] (setting [17]) is 0%. For the same compound, in series [3] (Preemergence, visual injury rating after approximately 10 d, read-out: Ryegrass, Italian plant response rating (0 to 100 scale, 0 is no effect, 100 is complete control)), the pest or weed control at 125 g/ha came out at 0%. Besides, in series [3] (setting [18]), the pest or weed control at 500 g/ha was 0%. In addition, in series [4] (Preemergence, visual injury rating after approximately 10 d, read-out: Ragweed plant response rating (0 to 100 scale, 0 is no effect, 100 is complete control)), the pest or weed control at 125 g/ha is 0%. Besides, in series [4] (setting [19]), the pest or weed control at 500 g/ha stood at 0%.
`O=C1NC[C@H](c2cncc(C(F)(F)F)c2)[C@H]1C(=O)Nc1ccccc1F` [Compound 887] displayed a melting point of 192 to 195 °C. Also, the pest or weed control at 125 g/ha in series [1] (setting [5]) was determined as 90%. Moreover, the pest or weed control at 500 g/ha in series [1] (setting [20]) was 90%. For the same compound, the pest or weed control at 125 g/ha in the series with Kochia (Kochia scoparia) (setting [7]) was 0%. Further, the pest or weed control at 500 g/ha in the series with Kochia (Kochia scoparia) (setting [21]) was determined as 20%. Also, in series [2] (setting [8]), the pest or weed control at 125 g/ha is 80%. Besides, in series [2] (setting [22]), the pest or weed control at 500 g/ha turned out to be 90%. Also, the pest or weed control at 125 g/ha in series [3] (setting [10]) worked out at 0%. Moreover, the pest or weed control at 500 g/ha in series [3] (setting [23]) was found to be 0%. For the same compound, the pest or weed control at 125 g/ha in series [4] (setting [12]) is 0%. Also, in series [4] (setting [24]), the pest or weed control at 500 g/ha is 0%.
`CC(C)=CC1CNC(=O)C1C(=O)Nc1ccccc1S(C)(=O)=O` (centres unmarked) [Compound 1057]: the melting point lay in the range of 159 to 163 °C. The pest or weed control at 125 g/ha in series [1] (setting [13]) came to 0%. The pest or weed control at 500 g/ha in series [1] (setting [14]) was 0%. Further, the pest or weed control at 125 g/ha with Kochia (Kochia scoparia) (setting [6]) stood at 0%. Moreover, the pest or weed control at 500 g/ha in the series on Kochia (Kochia scoparia) (setting [15]) came to 0%. Moreover, in series [2] (setting [16]), the pest or weed control at 125 g/ha was 0%. Also, the pest or weed control at 500 g/ha in series [2] (setting [17]) came out at 0%. For the same compound, in series [3] (setting [9]), the pest or weed control at 125 g/ha turned out to be 0%. In addition, in series [3] (setting [18]), the pest or weed control at 500 g/ha came out at 0%. Besides, the pest or weed control at 125 g/ha in series [4] (setting [11]) worked out at 0%. For the same compound, the pest or weed control at 500 g/ha in series [4] (setting [19]) is 0%.
`CSc1ccccc1NC(=O)C1C(=O)NCC1C=C(C)C` (centres unmarked) [Compound 1055] had a melting point of 100 to 104 °C. Besides, in series [1] (setting [13]), the pest or weed control at 125 g/ha turned out to be 0%. Moreover, the pest or weed control at 500 g/ha in series [1] (setting [14]) worked out at 0%. Also, in the series on Kochia (Kochia scoparia) (setting [6]), the pest or weed control at 125 g/ha came to 0%. In addition, in the series on Kochia (Kochia scoparia) (setting [15]), the pest or weed control at 500 g/ha amounted to 0%. For the same compound, the pest or weed control at 125 g/ha in series [2] (setting [16]) worked out at 0%. For the same compound, in series [2] (setting [17]), the pest or weed control at 500 g/ha turned out to be 0%. The pest or weed control at 125 g/ha in series [3] (setting [9]) stood at 0%. Also, the pest or weed control at 500 g/ha in series [3] (setting [18]) came out at 0%. For the same compound, the pest or weed control at 125 g/ha in series [4] (setting [11]) was 0%. For the same compound, the pest or weed control at 500 g/ha in series [4] (setting [19]) worked out at 0%.
As to `O=C1NCC(c2cccc(I)c2)C1C(=O)Nc1ccccc1F` (centres unmarked) [Compound 845], the melting point lay in the range of 150 to 153 °C. Further, the pest or weed control at 125 g/ha in series [1] (setting [5]) turned out to be 90%. Moreover, in series [1] (setting [20]), the pest or weed control at 500 g/ha was determined as 90%. Besides, the pest or weed control at 125 g/ha with Kochia (Kochia scoparia) (setting [7]) came to 40%. For the same compound, the pest or weed control at 500 g/ha in the series with Kochia (Kochia scoparia) (setting [21]) was 90%. Also, the pest or weed control at 125 g/ha in series [2] (setting [8]) was determined as 80%. Further, the pest or weed control at 500 g/ha in series [2] (setting [22]) is 90%. The pest or weed control at 125 g/ha in series [3] (setting [10]) turned out to be 0%. In addition, in series [3] (setting [23]), the pest or weed control at 500 g/ha was determined as 30%. Besides, the pest or weed control at 125 g/ha in series [4] (setting [12]) turned out to be 0%. Besides, the pest or weed control at 500 g/ha in series [4] (setting [24]) worked out at 0%.
Consider `CN1CC(c2ccccc2OC(F)(F)C(F)F)C(C(=O)Nc2cccc(F)c2F)C1=O` (centres unmarked) [Compound 1056], for which the melting point was 130 to 134 °C. The pest or weed control at 125 g/ha in series [1] (setting [13]) came out at 90%. Further, the pest or weed control at 500 g/ha in series [1] (setting [14]) stood at 90%. Also, the pest or weed control at 125 g/ha in the series with Kochia (Kochia scoparia) (setting [6]) was 0%. Moreover, the pest or weed control at 500 g/ha in the series on Kochia (Kochia scoparia) (setting [15]) is 0%. The pest or weed control at 125 g/ha in series [2] (setting [16]) worked out at 60%. In addition, the pest or weed control at 500 g/ha in series [2] (setting [17]) was 90%. Further, the pest or weed control at 125 g/ha in series [3] (setting [9]) came out at 0%. Further, in series [3] (setting [18]), the pest or weed control at 500 g/ha was 0%. Moreover, the pest or weed control at 125 g/ha in series [4] (setting [11]) worked out at 0%. Besides, the pest or weed control at 500 g/ha in series [4] (setting [19]) worked out at 0%.
